The source of these data is US20040097435A1, “Method of treating parasitic infection” (Pfizer Inc, priority 2000, published 2004).

Like-named read-outs stand apart in the source and are kept apart here.

In data set [1] the test system is ectoparasites such as fleas. Conditions: companion animals; cited from earlier work.
Data set [2] has as its system Ctenocephalides felis. As for the experimental part: (§1) Twenty-one adult females were allocated randomly to one of two treatments: placebo (negative control, 11 animals), or selamectin (10 animals). The selamectin, was formulated as: […]
(§2) Doses providing 6 mg/kg of selamectin were administered topically approximately 40 days and 10 days pre-partum and 10 days and 38 days post-partum in a single spot on the skin of each female's back at the base of the neck in front of the shoulder blades. Treatments were not administered to puppies. Post-partum day 1 was defined individually for each adult female as the day following the day of delivery of the last puppy in the litter.
(§3) Following observations of signs of pro-oestrus, the females were moved into randomly allocated carpeted pens in a building where the environment was suitable for the rapid completion of the flea reproductive cycle.
(§4) Each adult female was infested with 100 viable unfed adult C. felis approximately 60 days and 46 days pre-partum, and with 10 viable unfed adult fleas approximately 39, 33, 26, 19, 14 and 5 days pre-partum; an additional infestation was performed 7 days later if the female had not whelped. Each lactating female was also infested with 10 fleas on post-partum days 6, 15, 21, 28, 34 and 42. Comb counts of the number of viable adult fleas present on each female were made on approximately pre-partum days 41 and 11, and on postpartum days 9, 37 and 45. Comb counts of the fleas present on each puppy were performed on post-partum days 15, 24, 34, 42 and 45. After counting, up to 50 fleas per pregnant/lactating female and up to five fleas per puppy were replaced on each dog. For welfare reasons, if any dog was scratching or grooming excessively, additional unscheduled comb counts were performed on that dog and if necessary, the carpet was partially or entirely replaced to reduce the environmental flea challenge. Faecal egg counts for T. canis were performed for pregnant/lactating females on approximately pre-partum day 2 and on post-partum days 9, 17, 24 and 45, and for puppies on post-partum days 24 and 34.

Data set [3] relates to Toxocara canis. The conditions noted are these: 6 mg/kg topical to dam; for geometric mean faecal egg count: puppies born to treated females. As for the experimental part:
as §1, §2, §3, §4

In data set [4] the test system is Toxocara canis. The conditions noted are these: 6 mg/kg topical to dam. As for the experimental part: as §1, §2, §3
On post-partum day 45, each puppy was euthanised, its gastro-intestinal tract was removed and intestinal larval (L4) and adult T. canis were enumerated.

The subject of data set [5] is Toxocara cati. Conditions: post partum day 49. As for the experimental part: (§5) Thirty-eight adult females were allocated randomly to one of two treatments: placebo (negative control, 19 animals), or selamectin (19 animals). The selamectin, was formulated as: […]
(§6) Doses providing 6 mg/kg of selamectin were administered topically in a single spot on the skin of each female's back at the base of the neck in front of the shoulder blades on days 0 and 30 to individually-housed females and to females group-housed for mating on days 0, 30, 60 and 90 as required until kittening. All females were treated on post partum days 10 and 38. Treatments were not administered to kittens. […]. Study day 0 was defined individually for each adult female as the day on which the first treatment with either placebo or selamectin was administered and post partum day 1 was defined as the day following the day of delivery of the last kitten in the litter.
Each adult female was inoculated once with approximately 1000 embryonated T. cati ova, per os, between 150 and 31 days prior to commencing the study and again between 5 and 21 days before kittening.
On post partum day 49, each kitten was euthanased, its gastrointestinal tract was removed and intestinal larvae (L4) and adult T. cati were enumerated.

The test system of data set [6] is Ctenocephalides felis. The procedure:
as §5, §6
The source holds these as a separate data set.

The conditions of data set [7]: 6 mg/kg topical at monthly intervals during pregnancy and post-partum, female dogs.
For data set [8] the following is noted: 6 mg/kg topical at monthly intervals during pregnancy and post partum, female cats.
Data set [9] relates to intestinal nematode. Conditions: administered to pregnant bitch from pregnancy past parturition; Veterinary Parasitology, 1999, 85, 305; cited from earlier work.
The mark [10] stands for this setting: kittens at necropsy, 6 mg/kg topical to dam.

Consider `CO[C@H]1C[C@H](O[C@H]2[C@H](C)O[C@@H](O[C@@H]3/C(C)=C/C[C@@H]4C[C@@H](C[C@]5(C=C[C@H](C)[C@@H](C6CCCCC6)O5)O4)OC(=O)[C@@H]4C=C(C)[C@@H](O)[C@H]5OC/C(=C\C=C\[C@@H]3C)[C@]54O)C[C@@H]2OC)O[C@@H](C)[C@@H]1O` [doramectin], for which the “activity against ectoparasites such as fleas” value in data set [1] was “poor activity”.

Consider `CO[C@H]1C[C@H](O[C@@H]2/C(C)=C/C[C@@H]3C[C@@H](C[C@]4(CC[C@H](C)[C@@H](C5CCCCC5)O4)O3)OC(=O)[C@@H]3C=C(C)/C(=N/O)[C@H]4OC/C(=C\C=C\[C@@H]2C)[C@]43O)O[C@@H](C)[C@@H]1O` [selamectin], for which, in [2] (puppies, all counting days (post-partum days 15, 24, 34, 42 and 45)), the “reduction in mean flea comb counts compared with puppies born to placebo-treated females” value turned out to be 100.0%. The “geometric mean flea comb count” value in data set [2] (puppies, all counting days (post-partum days 15, 24, 34, 42 and 45), 6 mg/kg topical to dam) was determined as 0. In data set [2] (to maintain flea burdens within acceptable limits), the “females or their puppies requiring additional flea control measures” value is “None”. In addition, in data set [3] (post-partum day 24), the “reduction in mean faecal egg count compared with puppies born to placebo-treated females” value came to 96.8% and the “geometric mean faecal egg count” value is given as 0.8 epg. In addition, in data set [3] (post-partum day 34), the “reduction in mean faecal egg count compared with puppies born to placebo-treated females” value is reported as 96.1% and the “geometric mean faecal egg count” value is recorded as 2.1 epg. The “reduction in mean adult T. canis count compared with puppies born to placebo-treated females” value in [4] (necropsy post partum day 45) was found to be 98.2%. In addition, the “geometric mean adult T. canis worm count” value in data set [4] (puppies at necropsy, post-partum day 45) is recorded as 0.1. Moreover, in data set [5] (setting [10]), the “geometric mean L4 T. cati count” value was 0.0 and the “geometric mean adult T. cati count” value is listed as 0.0. In [5], the “reduction in mean adult T. cati count compared with kittens born to placebo-treated females” value was 100% and the “reduction in mean fourth stage larvae (L4) T. cati count compared with kittens born to placebo-treated females” value was determined as 100%. Also, in [6] (after the first treatment on day 0, to maintain flea burdens within acceptable limits), the “females or their kittens requiring additional flea control measures” value is “none”. Further, the “reduction in mean flea comb counts compared with kittens born to placebo-treated females” value in data set [6] (kittens, all counting days (post partum days 15, 24, 34, 42 and 49)) was found to be 100%. Moreover, the “geometric mean flea comb count” value in data set [6] (kittens, all counting days (post partum days 15, 24, 34, 42 and 49), 6 mg/kg topical to dam) was “zero”. In addition, the safety of treatment entry in data set [7] was “safe”. For the same molecule, the safety of treatment entry in data set [8] is recorded as “safe”.

For the molecule ivermectin, the “activity against ectoparasites such as fleas” value in data set [1] is “poor activity”. Besides, in [9], the “prevention of intestinal nematode infections in pups” value is “can prevent intestinal nematode infections in pups”.
